Data on four compounds can be found in patent US20030050302A1, “Treatment of conditions associated with amyloid processing using PKC activators” (Neurologic, Inc., priority 2000, published 2003).

Assay [1] concerns sAPP. The experiment in a line: sAPP secretion in AD fibroblasts (immunoblot densitometry). (A western blot detects proteins with antibodies after separation by electrophoresis.)
Description: (§2) Human fibroblasts were obtained from the Coriell Cell Repositories (Camden N.J.). […] The culture medium was DMEM supplemented with 10% serum (FBS, Gibeo). PC12 cells were obtained from the American Cell Culture Collection and grown to confluence in T75 flasks containing DMEM supplemented with 5% FPS (Gibeo), 10% horse serum (Biofluids) and 1% of a mixture of penicillin (5000 units/ml in G sodium) and streptomycin (5000 μg/ml).
(§3) Complete culture medium was removed just prior to experiments.
(§4) After two hours of incubation, the supernatant was removed and the secreted proteins were precipitated with 10% TCA and resuspended in Tris-glycine SDS electrophoresis sample buffer (Novex). The samples were boiled for 5 min, subjected to electrophoresis and later to immunoblotting for identification of sAPP.
(§5) Conventional immunoblotting techniques were employed. […] The volume of sample loaded was corrected for total cell protein per flask. Proteins were transferred electrophoretically to nitrocellulose membranes. The membranes were saturated with Blotto blocker (Pierce) and incubated overnight at 4° C. with 1:500 6E10 monoclonal antibody from Senetek. After washing, the membranes were incubated for 1 h at room temperature with the secondary antibody, alkaline phosphatase anti-mouse. IfG (Vector Laboratories) and developed using a BCIP/NBT subtrate kit (Vector Laboratories). The bands were quantitated by densitometric analyses (NIH Image, version 1.6) after obtaining a digital image of each membrane.
Assay [2] deals with sAPP. The experiment in a line: sAPP secretion in age-matched control fibroblasts (immunoblot densitometry).
Description: as §2, §3, §4, §5
For assay [3], the system named is fibroblasts from AD patients. Put plainly: TEA-induced [Ca2+] elevation (calcium imaging) in AD fibroblasts.
Description: (§6) The culture medium in which cells were grown was Dulbecco's modified Eagle's medium (GIBCO) supplemented with 10% fetal calf serum (Biofluids, Inc.).
(§7) Round, 25-mm glass coverslips were flame-polished and placed inside 35-mm Nunc petri dishes. Cells were seeded (ca. 10-15 cells/mm^2) in these petri dishes and used when cell density was equivalent for all cell lines (ca 180 cells/mm^2). […] Briefly, culture medium was removed and cells were washed at least three times with basal salt solution (BSS; in mM: NaCl 140, KCl 5, CaCl2 2.5, MgCl2 1.5, Hepes 10, glucose 5, pH 7.4). The fluorescent probe was loaded by incubating cells in 1 μM fura 2-AM (Molecular Probes) in 1 ml BSS at room temperature (RT). One hour later, cells were washed thoroughly with BSS and 1 ml of fresh BSS was added for [Ca^2+] baseline measurements. […] A 40× Zeiss Fluor (oil immersion) objective lens was used.
A group of cells was treated with the PKC activator benzolactam prior to the TEA challenge. BL was dissolved in dimethyl sulfoxide (DMSO; Sigma) to achieve a final testing concentration of 50 nM when 1 ml of the dissolved BL was added to the dish 1 minute prior to TEA application. […] Seven to ten petri dishes of cells were tested from each cell line for each experimental condition. In almost all the cell lines, a minimum of 100 cells were tested per treatment per cell line (total 9231 cells). There were only three AC cell lines for which the number of cells in a couple of treatment groups was above 65 but below 100. Experiments for each cell line were repeated on at least one separate occasion (minimum 1-week interval). Response in a given cell was characterized as a double-fold increase in baseline [Ca^2+]
For assay [4], the system named is 113 pS TEA-sensitive K+ channel. The experiment in a line: Patch-clamp single-channel recording in AD cell line AG06848. The format is cell-based, human. How it is done: Patch-claim experiments were performed on 13 separate replicate representative experiments in a well-characterized AD cell line (AG06848) which is normally silent for the 113 pS TEA-sensitive K^+ channel (Etcheberrigaray et al., 1993). The experiment was performed at room temperature (21-23° C.) following standard procedures (Sakmann & Neher, 1983). The culture medium was replaced with the following solution (mM, NaCl 150, KCl 5, CaCl2 2, MgCl2 1, Hepes (NaOH) 10, pH 7.4, prior to recording. Benzolactam was added to a dish after ensuring that the patch is silent for the II 3 pS K^+ channel. The recording electrodes, filled with a high-K^+ solution (mM), KCl 140, CaCl2 2, MgCl2 1, Hepes (NaOH) 10, pH 7.4, were made from Blu Tip capillary tubes (i.d. 1.1-1.2 mm; Oxford Labware) by using a BB-CH-PC Mecanex puller to obtain pipette resistances that were ˜6 MΩ. An Axopath-IC amplifier was used to obtain records and a JVC Vetter PCM videorecorder was used to store the data on tape. The data were acquired and analyzed on a personal computer with a pClamp suite of programs by transferring the information via an Axolab interface from the amplifier. All three components-amplifier, interface, and software-were obtained from Axon Instruments (Foster City, Calif.).
For orientation: Patch clamp records ionic current or voltage across a cell membrane.

Assay [5] concerns the target PKC δ (Homo sapiens, UniProt Q05655). To be noted: δ isoform vs α; cited from earlier work.
Assay [6] has as its target T1, PKC ε (Homo sapiens, UniProt Q02156).
T1 sequence (Q02156 1-737): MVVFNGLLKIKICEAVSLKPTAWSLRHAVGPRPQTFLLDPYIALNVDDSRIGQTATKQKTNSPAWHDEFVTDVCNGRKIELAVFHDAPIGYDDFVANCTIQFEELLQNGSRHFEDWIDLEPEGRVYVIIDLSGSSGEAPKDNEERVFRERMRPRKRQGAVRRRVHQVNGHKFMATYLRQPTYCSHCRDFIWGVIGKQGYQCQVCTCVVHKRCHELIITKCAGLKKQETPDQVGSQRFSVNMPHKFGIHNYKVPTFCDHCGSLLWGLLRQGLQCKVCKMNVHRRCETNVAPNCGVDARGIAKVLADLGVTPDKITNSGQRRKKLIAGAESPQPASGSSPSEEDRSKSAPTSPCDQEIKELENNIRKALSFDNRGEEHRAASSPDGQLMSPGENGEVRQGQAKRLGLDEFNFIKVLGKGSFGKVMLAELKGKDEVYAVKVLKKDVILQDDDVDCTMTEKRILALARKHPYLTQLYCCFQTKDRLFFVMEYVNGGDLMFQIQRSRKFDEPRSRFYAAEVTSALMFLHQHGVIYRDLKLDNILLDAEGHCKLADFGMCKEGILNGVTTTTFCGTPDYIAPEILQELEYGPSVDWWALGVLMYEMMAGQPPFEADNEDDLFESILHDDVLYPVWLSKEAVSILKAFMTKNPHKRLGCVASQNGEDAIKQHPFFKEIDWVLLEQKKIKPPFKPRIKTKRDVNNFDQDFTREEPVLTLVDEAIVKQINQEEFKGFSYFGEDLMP
The note with it: ε isoform vs α; cited from earlier work.

For assay [7] the following is noted: rats, personal communication; cited from earlier work.
The test system of assay [8] is sAPP. Put plainly: sAPP secretion in PC12 cells (immunoblot densitometry). The note with it: for sAPP secretion vs basal level: 10 μM.
Description: as §2, §3, §4, §5
In assay [9] the target is T2, PKC α isoform (Homo sapiens, UniProt P17252). Put plainly: Immunoblot of PKC α translocation cytosol to membrane in AC cell lines. Details: endogenous in cells; host or cells: human skin fibroblast lines from AC controls. The format is cell-based. To be noted: AC cells, 50 nM. The method, then: (§1) Cells were grown to confluency (˜90%) in t-75 flasks. […] Fibroblasts were washed twice with ice-cold PBS, scraped in PBS, and collected by low-speed centrifugation. The pellets were resuspended in the following homogenization buffer: 20 mM Tris-HCl, pH 7.5, 2 mM EDTA, 2 mM EGTA, 5 mM DTT, 0.32 M sucrose, 2 mM PMSF, 25 μg/ml leupeptin. Homogenates were immersed in liquid nitrogen, thawed, and centrifuged at 12,000 g for 20 minutes, and the supernatants were used as the cytosolic fraction. The pellets were homogenized in the same buffer containing 1.0% Triton X-100, incubated in ice for 45 minutes, and centrifuged at 12,000 g for 30 minutes. The supernatant from this batch was used as the membranous fraction. […] The membrane was saturated with Blotto blocker (Pierce) by incubating it at RT for an hour. The primary antibody for PKC α isoform (Transduction Laboratories) was diluted (1:1000) in blocking solution and incubated with the membrane for 1 hour at RT. After incubation with the secondary antibody, alkaline phosphatasae antimouse IgG (Vector Laboratories), the membrane was developed using an alkaline phosphatase kit (Vector Laboratories) as per the manufacturer's instructions. The conditions for developing the membranes were kept as similar as possible. […]

For assay [10], the system named is age-matched control (AC) fibroblasts. The experiment in a line: TEA-induced [Ca2+] elevation (calcium imaging) in age-matched control (AC) fibroblasts. The note with it: 50 nM, 1 minute.
Description: as §6, §7
A group of cells was treated with the PKC activator benzolactam prior to the TEA challenge. BL was dissolved in dimethyl sulfoxide (DMSO; Sigma) to achieve a final testing concentration of 50 nM when 1 ml of the dissolved BL was added to the dish 1 minute prior to TEA application. […] Seven to ten petri dishes of cells were tested from each cell line for each experimental condition. In almost all the cell lines, a minimum of 100 cells were tested per treatment per cell line (total 9231 cells). […]
Assay [11] deals with T2, PKC α isoform. The experiment in a line: Immunoblot of PKC α translocation cytosol to membrane in AD cell lines. The format is cell-based. On the set-up: endogenous in cells; host or cells: human skin fibroblast lines from AD patients and AC controls. To be noted: 50 nM. How it is done:
as §1

PKC δ, sequence (Q05655 whole entry, canonical isoform): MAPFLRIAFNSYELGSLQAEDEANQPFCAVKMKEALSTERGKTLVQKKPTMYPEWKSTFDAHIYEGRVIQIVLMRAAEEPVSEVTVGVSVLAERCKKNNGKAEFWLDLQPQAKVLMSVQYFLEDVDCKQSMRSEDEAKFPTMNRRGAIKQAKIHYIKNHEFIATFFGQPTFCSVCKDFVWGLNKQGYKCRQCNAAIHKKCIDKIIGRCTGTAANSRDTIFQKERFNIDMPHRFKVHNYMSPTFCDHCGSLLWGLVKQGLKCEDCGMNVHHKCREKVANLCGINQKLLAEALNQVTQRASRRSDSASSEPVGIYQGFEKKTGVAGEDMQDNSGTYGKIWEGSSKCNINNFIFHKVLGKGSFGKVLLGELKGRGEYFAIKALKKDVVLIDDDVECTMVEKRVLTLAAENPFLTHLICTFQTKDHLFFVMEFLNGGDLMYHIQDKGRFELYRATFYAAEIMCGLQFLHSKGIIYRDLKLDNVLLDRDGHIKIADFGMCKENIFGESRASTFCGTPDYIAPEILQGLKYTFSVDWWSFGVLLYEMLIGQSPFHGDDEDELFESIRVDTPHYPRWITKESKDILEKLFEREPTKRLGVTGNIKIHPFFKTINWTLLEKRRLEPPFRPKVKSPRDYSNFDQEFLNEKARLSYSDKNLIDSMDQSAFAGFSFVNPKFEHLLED

Turning to `CN[C@@H]1C[C@H]2O[C@@](C)([C@@H]1OC)n1c3ccccc3c3c4c(c5c6ccccc6n2c5c31)C(=O)NC4` [staurosporine], the “effect on BL-induced sAPP secretion” value in assay [1] (AD cell lines, 0.5 μM staurosporine 30 min prior to BL) is on record as “completely prevented”. Further, in assay [1] (staurosporine pretreatment, data not shown), the “effect on phorbol (PDBu)-induced sAPP secretion” value was “significantly reduced”. Besides, in assay [2] (age-matched control cell lines), the “sAPP secretion, staurosporine alone” value is listed as “without effect”. Also, the “effect on increase in sAPP secretion caused by 10 μM BL” value in assay [2] (age-matched control cell lines, 0.5 μM staurosporine pretreatment) is given as “effective in preventing”.
In the case of `CCCC(=O)O[C@@H]1[C@@H](C)[C@@]2(O)[C@@H](C=C(CO)C[C@]3(O)C(=O)C(C)=C[C@@H]23)[C@@H]2C(C)(C)[C@]12OC(=O)CCC` [PDBu, phorbol 12,13-dibutyrate], the “sAPP secretion vs basal” value in [1] (AD cell lines, 0.5 μM, 2 h) is “maximal at 500 nM”; in [1] (AD cell lines, 0.5, 1 and 10 μM, 2 h), “statistically significant increases”; in assay [2] (age-matched control cell lines, 0.5, 1 and 10 μM), “statistical significance was not reached”. Moreover, the “TEA response vs 4α-PHR-treated cells” value in assay [3] (AD cells, 50 nM, 45 minutes) is listed as “did not differ”. Also, in [3] (AD cells, 1 and 15 minutes incubation), the “TEA response, shorter incubation times” value is given as “without effect”.
In the case of `CCCCCCCCC#Cc1ccc2c(c1)C[C@@H](CO)NC(=O)[C@H](C(C)C)N2C` [BL, (2S, 5S)-8-(1′-decynyl)benzolactam], in assay [4] (AD cell line AG06848, 1 minute BL treatment), the “K+ channel activity after BL activation” value was determined as 54%. Besides, the “cells showing unambiguous 113 pS K+ channel” value in [4] (of 13 recordings silent before BL, 1 minute BL treatment) worked out at 7. Besides, the “affinity lower than for PKC α” value in assay [5] and in [6] was “at least 10 fold” each time. In addition, the antitumoral activity result in assay [7] is reported as “shows antitumoral activity”. Moreover, the sAPP secretion in assay [8] was ~3 fold. The “sAPP secretion vs basal level” value in assay [8] is “significantly increased”. For the same compound, the “sAPP secretion vs basal” value in assay [1] (AD cell lines, 0.5 μM, 2 h) was “did not reach statistical significance”. In addition, the “sAPP secretion vs basal, post test significance” value in [1] (AD cell lines, 1 μM, 2 h) is listed as “significance level of p<0.001”. Besides, the “sAPP secretion over basal” value in [1] (AD cell lines, 10 μM, 2 h) is reported as “almost three-fold increase”. Moreover, the “percentage of cells responding to TEA vs untreated and DMSO-treated controls” value in assay [3] (AD cell lines, 50 nM, 1 minute) is “significantly increased”. For the same compound, in [3] (AD cells treated with BL (50 nM, 1 minute) before 100 mM TEA), the “percentage of cells responding to TEA” value came to 19.58%. For the same compound, the “PKC translocation vs basal levels” value in assay [9] (1 minute) is reported as “ns”. Also, the “PKC α particulate/soluble ratio” value came out at 1.72 in assay [9] (15 minutes) and 1.156 in assay [11] (15 minutes). In [10], the “percentage of response to TEA vs untreated or DMSO-treated cells” value was “did not differ”. In addition, the “redistribution of PKC α from cytosol to membrane vs basal ratio” value in assay [11] (1 minute) is reported as “pronounced redistribution”.
`CCCCCCCCCCCC(=O)Oc1ccc([C@H]2[C@@H](C(C)C)C(=O)N[C@@H]2CO)c2ccccc12` [LQ12]: the “sAPP secretion vs basal level” value in assay [8] was “significantly increased”.
